Species: Rattus norvegicus
Assay: Open TG-GATES - Regimen: Daily Repeat
Type: toxicity, organism-based, Sprague-Dawley
Parameters: regimen Daily Repeat, gender Male, age 6 weeks
Conditions: in vivo, po, 0 mg/kg, route gavage, dose level Control; for APTT / Bas / Eos / Fbg / Hb / Ht / Lym / MCH / MCHC / MCV / Mono / Neu / PT / Plat / RBC / Ret / WBC: tissue Blood; for KIDNEY_L / KIDNEY_R / KIDNEY_TOTAL: tissue Kidney; for LIVER: tissue Liver; for A/G / ALP / ALT / AST / BUN / CRE / Ca / Cl / DBIL / GLC / IP / K / LDH / Na / PL / RALB / TBIL / TC / TG / TP / gamma-GTP: tissue Plasma

Structure (SMILES): OCCOCCN1CCN(C(c2ccccc2)c2ccc(Cl)cc2)CC1 (configuration not stated) [HYDROXYZINE]
- TERMINAL_BW (72 h, time 3 day): 230.9 g
- APTT (72 h, time 3 day): 15.5 s
- Bas (72 h, time 3 day): 0%
- Eos (72 h, time 3 day): 1%
- Fbg (72 h, time 3 day): 263.6 mg/dL
- Hb (72 h, time 3 day): 12.9 g/dL
- Ht (72 h, time 3 day): 39%
- Lym (72 h, time 3 day): 74.6%
- MCH (72 h, time 3 day): 21.1 pg
- MCHC (72 h, time 3 day): 33.1%
- MCV (72 h, time 3 day): 63.9 fL
- Mono (72 h, time 3 day): 3.2%
- Neu (72 h, time 3 day): 20.6%
- PT (72 h, time 3 day): 15.7 s
- Plat (72 h, time 3 day): 117.4 x10_4/uL
- RBC (72 h, time 3 day): 610.4 x10_4/ul
- Ret (72 h, time 3 day): 7.5%
- WBC (72 h, time 3 day): 77.5 x10_2/uL
- KIDNEY_L (72 h, time 3 day): 1 g
- KIDNEY_R (72 h, time 3 day): 1 g
- KIDNEY_TOTAL (72 h, time 3 day): 1.9 g
- LIVER (72 h, time 3 day): 11.1 g
- A/G (72 h, time 3 day): 0.9
- ALP (72 h, time 3 day): 1652.8 IU/L
- ALT (72 h, time 3 day): 46.2 IU/L
- AST (72 h, time 3 day): 68.8 IU/L
- BUN (72 h, time 3 day): 16.2 mg/dL
- CRE (72 h, time 3 day): 0.2 mg/dL
- Ca (72 h, time 3 day): 10.9 mg/dL
- Cl (72 h, time 3 day): 105.8 meq/L
- DBIL (72 h, time 3 day): 0.012 mg/dL
- GLC (72 h, time 3 day): 186.8 mg/dL
- IP (72 h, time 3 day): 8.1 mg/dL
- K (72 h, time 3 day): 4 meq/L
- LDH (72 h, time 3 day): 91.8 IU/L
- Na (72 h, time 3 day): 143.2 meq/L
- PL (72 h, time 3 day): 148.4 mg/dL
- RALB (72 h, time 3 day): 2.7 g/dL
- TBIL (72 h, time 3 day): 0.052 mg/dL
- TC (72 h, time 3 day): 73 mg/dL
- TG (72 h, time 3 day): 90 mg/dL
- TP (72 h, time 3 day): 5.7 g/dL
- gamma-GTP (72 h, time 3 day): 0.8 IU/L
- TERMINAL_BW ([…], time 7 day): 263.6 g
- TERMINAL_BW ([…], time 14 day): 336.5 g
- TERMINAL_BW ([…], time 28 day): 390.2 g
- APTT ([…], time 7 day): 16.8 s
- Bas ([…], time 7 day): 0%
- Eos ([…], time 7 day): 1%
- Fbg ([…], time 7 day): 282.2 mg/dL
- Hb ([…], time 7 day): 13.6 g/dL
- Ht ([…], time 7 day): 40.9%
- Lym ([…], time 7 day): 79.2%
- MCH ([…], time 7 day): 21.3 pg
- MCHC ([…], time 7 day): 33.3%
- MCV ([…], time 7 day): 63.9 fL
- Mono ([…], time 7 day): 2.4%
- Neu ([…], time 7 day): 16.4%
- PT ([…], time 7 day): 15.4 s
- Plat ([…], time 7 day): 113.3 x10_4/uL
- RBC ([…], time 7 day): 639.4 x10_4/ul
- Ret ([…], time 7 day): 6.1%
- WBC ([…], time 7 day): 82.1 x10_2/uL
- APTT ([…], time 14 day): 16.9 s
- Bas ([…], time 14 day): 0%
- Eos ([…], time 14 day): 1%
- Fbg ([…], time 14 day): 292 mg/dL
- Hb ([…], time 14 day): 14.1 g/dL
- Ht ([…], time 14 day): 41.5%
- Lym ([…], time 14 day): 75.4%
- MCH ([…], time 14 day): 20.7 pg
- MCHC ([…], time 14 day): 34%
- MCV ([…], time 14 day): 60.9 fL
- Mono ([…], time 14 day): 2.8%
- Neu ([…], time 14 day): 20.2%
- PT ([…], time 14 day): 15.5 s
- Plat ([…], time 14 day): 116.6 x10_4/uL
- RBC ([…], time 14 day): 682.2 x10_4/ul
- Ret ([…], time 14 day): 4.8%
- WBC ([…], time 14 day): 105.1 x10_2/uL
- APTT ([…], time 28 day): 26.6 s
- Bas ([…], time 28 day): 0.2%
- Eos ([…], time 28 day): 1.2%
- Fbg ([…], time 28 day): 295.8 mg/dL
- Hb ([…], time 28 day): 15.1 g/dL
- Ht ([…], time 28 day): 43.4%
- Lym ([…], time 28 day): 79.6%
- MCH ([…], time 28 day): 19.7 pg
- MCHC ([…], time 28 day): 34.7%
- MCV ([…], time 28 day): 56.7 fL
- Mono ([…], time 28 day): 2%
- Neu ([…], time 28 day): 16.4%
- PT ([…], time 28 day): 15.9 s
- Plat ([…], time 28 day): 105.6 x10_4/uL
- RBC ([…], time 28 day): 766.4 x10_4/ul
- Ret ([…], time 28 day): 2.4%
- WBC ([…], time 28 day): 99.9 x10_2/uL
- KIDNEY_L ([…], time 7 day): 1.1 g
- KIDNEY_R ([…], time 7 day): 1.1 g
- KIDNEY_TOTAL ([…], time 7 day): 2.3 g
- KIDNEY_L ([…], time 14 day): 1.3 g
- KIDNEY_R ([…], time 14 day): 1.3 g
- KIDNEY_TOTAL ([…], time 14 day): 2.7 g
- KIDNEY_L ([…], time 28 day): 1.4 g
- KIDNEY_R ([…], time 28 day): 1.3 g
- KIDNEY_TOTAL ([…], time 28 day): 2.8 g
- LIVER ([…], time 7 day): 12.4 g
- LIVER ([…], time 14 day): 15.4 g
- LIVER ([…], time 28 day): 16.2 g
- A/G ([…], time 7 day): 0.8
- ALP ([…], time 7 day): 1624.6 IU/L
- ALT ([…], time 7 day): 41.6 IU/L
- AST ([…], time 7 day): 68.4 IU/L
- BUN ([…], time 7 day): 16.6 mg/dL
- CRE ([…], time 7 day): 0.2 mg/dL
- Ca ([…], time 7 day): 11 mg/dL
- Cl ([…], time 7 day): 105.2 meq/L
- DBIL ([…], time 7 day): 0.016 mg/dL
- GLC ([…], time 7 day): 193 mg/dL
- IP ([…], time 7 day): 8 mg/dL
- K ([…], time 7 day): 4 meq/L
- LDH ([…], time 7 day): 68.4 IU/L
- Na ([…], time 7 day): 143.2 meq/L
- PL ([…], time 7 day): 166.6 mg/dL
- RALB ([…], time 7 day): 2.7 g/dL
- TBIL ([…], time 7 day): 0.054 mg/dL
- TC ([…], time 7 day): 84 mg/dL
- TG ([…], time 7 day): 103 mg/dL
- TP ([…], time 7 day): 5.8 g/dL
- gamma-GTP ([…], time 7 day): 0.8 IU/L
- A/G ([…], time 14 day): 0.8
- ALP ([…], time 14 day): 1450 IU/L
- ALT ([…], time 14 day): 40.6 IU/L
- AST ([…], time 14 day): 62.6 IU/L
- BUN ([…], time 14 day): 16.2 mg/dL
- CRE ([…], time 14 day): 0.2 mg/dL
- Ca ([…], time 14 day): 10.6 mg/dL
- Cl ([…], time 14 day): 103.8 meq/L
- DBIL ([…], time 14 day): 0.02 mg/dL
- GLC ([…], time 14 day): 190.2 mg/dL
- IP ([…], time 14 day): 7.4 mg/dL
- K ([…], time 14 day): 4 meq/L
- LDH ([…], time 14 day): 94.6 IU/L
- Na ([…], time 14 day): 141.8 meq/L
- PL ([…], time 14 day): 151.2 mg/dL
- RALB ([…], time 14 day): 2.7 g/dL
- TBIL ([…], time 14 day): 0.056 mg/dL
- TC ([…], time 14 day): 73 mg/dL
- TG ([…], time 14 day): 126.4 mg/dL
- TP ([…], time 14 day): 6.1 g/dL
- gamma-GTP ([…], time 14 day): 0.6 IU/L
- A/G ([…], time 28 day): 0.8
- ALP ([…], time 28 day): 992.6 IU/L
- ALT ([…], time 28 day): 36 IU/L
- AST ([…], time 28 day): 61.2 IU/L
- BUN ([…], time 28 day): 16.8 mg/dL
- CRE ([…], time 28 day): 0.2 mg/dL
- Ca ([…], time 28 day): 10.6 mg/dL
- Cl ([…], time 28 day): 106 meq/L
- DBIL ([…], time 28 day): 0.016 mg/dL
- GLC ([…], time 28 day): 186.6 mg/dL
- IP ([…], time 28 day): 6.6 mg/dL
- K ([…], time 28 day): 4.1 meq/L
- LDH ([…], time 28 day): 118.8 IU/L
- Na ([…], time 28 day): 142.8 meq/L
- PL ([…], time 28 day): 149.2 mg/dL
- RALB ([…], time 28 day): 2.8 g/dL
- TBIL ([…], time 28 day): 0.052 mg/dL
- TC ([…], time 28 day): 68.2 mg/dL
- TG ([…], time 28 day): 161.2 mg/dL
- TP ([…], time 28 day): 6.3 g/dL
- gamma-GTP ([…], time 28 day): 0.4 IU/L
